Measurements taken from article PMC11059415 (Heliyon, 2024).

Biological target: T1, Sp-Fld (Sp-flavodoxin) (Streptococcus pneumoniae, UniProt Q8DPG4)
T1 sequence (Q8DPG4 1-147): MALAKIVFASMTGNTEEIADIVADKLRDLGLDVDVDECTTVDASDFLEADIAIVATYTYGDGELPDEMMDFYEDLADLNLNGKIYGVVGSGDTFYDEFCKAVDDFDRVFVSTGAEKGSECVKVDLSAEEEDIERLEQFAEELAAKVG
Assay: isothermal titration calorimetry
Format: binding

- Kd: 2500 ± 400 nM
Structure (SMILES): N[C@@H](Cc1cc(I)c(Oc2cc(I)c(O)c(I)c2)c(I)c1)C(=O)O [Cp1, L-thyroxine]
